Reference: BindingDB's records for doi:10.1074/jbc.M110.139634 (French Alternative Energies and Atomic Energy Commission, 2010)

Columns and labels:
Assay in all cases: Enzyme Assay
Conditions in all cases: pH 6.8; 25 °C
[1] = target: 72 kDa type IV collagenase (Homo sapiens, UniProt P08253)
Excerpt: (§1) Enzyme assay using matrix metalloproteinases.

[2] = target: Angiotensin-converting enzyme (Homo sapiens, UniProt P12821)
Excerpt: as §1

Collagenase 3 = Collagenase 3 (Homo sapiens, UniProt P45452)
Excerpt: as §1

[3] = target: T1, Disintegrin and metalloproteinase domain-containing protein 17 [215-477,S266A,N452Q] (Homo sapiens, UniProt P78536, N452Q/S266A)
T1 construct: 215-477
T1 sequence (P78536 215-477 S266A/N452Q): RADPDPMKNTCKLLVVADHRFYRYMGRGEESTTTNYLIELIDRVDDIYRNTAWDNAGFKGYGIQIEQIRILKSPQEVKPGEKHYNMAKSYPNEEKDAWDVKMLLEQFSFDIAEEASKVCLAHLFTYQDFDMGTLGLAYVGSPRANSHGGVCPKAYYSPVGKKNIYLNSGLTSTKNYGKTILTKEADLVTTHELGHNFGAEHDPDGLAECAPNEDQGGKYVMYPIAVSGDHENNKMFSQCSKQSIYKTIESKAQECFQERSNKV
Excerpt: as §1

Interstitial collagenase = target: T2, Interstitial collagenase (Homo sapiens, UniProt P03956)
T2 sequence (P03956 whole entry): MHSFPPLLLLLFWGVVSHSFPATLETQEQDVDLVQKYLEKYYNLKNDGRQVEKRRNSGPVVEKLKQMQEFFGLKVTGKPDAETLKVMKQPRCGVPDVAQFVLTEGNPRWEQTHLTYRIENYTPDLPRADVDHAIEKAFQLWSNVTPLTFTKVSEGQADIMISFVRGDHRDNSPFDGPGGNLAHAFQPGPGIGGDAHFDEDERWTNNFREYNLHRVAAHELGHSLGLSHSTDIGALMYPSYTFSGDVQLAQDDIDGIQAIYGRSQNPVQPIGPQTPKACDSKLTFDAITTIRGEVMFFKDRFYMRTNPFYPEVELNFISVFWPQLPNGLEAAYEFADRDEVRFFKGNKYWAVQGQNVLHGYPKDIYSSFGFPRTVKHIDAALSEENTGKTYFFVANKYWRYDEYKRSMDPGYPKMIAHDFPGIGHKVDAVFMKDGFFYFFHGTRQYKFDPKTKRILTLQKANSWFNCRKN
Excerpt: as §1

[4] = target: Macrophage metalloelastase (Homo sapiens, UniProt P39900)
Sequence of Macrophage metalloelastase (P39900 whole entry): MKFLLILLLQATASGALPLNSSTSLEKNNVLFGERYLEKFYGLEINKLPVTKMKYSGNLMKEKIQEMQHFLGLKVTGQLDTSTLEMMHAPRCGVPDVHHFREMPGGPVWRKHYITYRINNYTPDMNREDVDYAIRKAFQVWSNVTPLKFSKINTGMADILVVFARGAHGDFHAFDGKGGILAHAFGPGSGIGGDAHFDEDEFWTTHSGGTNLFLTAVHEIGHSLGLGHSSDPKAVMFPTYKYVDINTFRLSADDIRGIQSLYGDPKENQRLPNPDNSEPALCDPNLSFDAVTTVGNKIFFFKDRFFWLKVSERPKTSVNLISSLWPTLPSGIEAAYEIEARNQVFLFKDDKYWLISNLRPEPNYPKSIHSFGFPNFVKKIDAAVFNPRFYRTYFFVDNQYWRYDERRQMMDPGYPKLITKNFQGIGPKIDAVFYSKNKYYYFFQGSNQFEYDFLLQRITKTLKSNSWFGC
Excerpt: as §1

Matrilysin = target: T3, Matrilysin (Homo sapiens, UniProt P09237)
T3 sequence (P09237 whole entry): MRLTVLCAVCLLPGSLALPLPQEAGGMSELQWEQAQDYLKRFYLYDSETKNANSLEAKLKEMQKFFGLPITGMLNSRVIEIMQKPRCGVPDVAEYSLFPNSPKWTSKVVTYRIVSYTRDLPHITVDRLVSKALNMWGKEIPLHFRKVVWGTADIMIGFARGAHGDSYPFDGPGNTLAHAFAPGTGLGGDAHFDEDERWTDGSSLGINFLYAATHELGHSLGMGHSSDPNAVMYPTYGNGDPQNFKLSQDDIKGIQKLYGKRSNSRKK
Excerpt: as §1

[5] = target: Matrix metalloproteinase-14 (Homo sapiens, UniProt P50281)
Excerpt: as §1

[6] = target: Matrix metalloproteinase-9 (Homo sapiens, UniProt P14780)
Sequence of Matrix metalloproteinase-9 (P14780 whole entry): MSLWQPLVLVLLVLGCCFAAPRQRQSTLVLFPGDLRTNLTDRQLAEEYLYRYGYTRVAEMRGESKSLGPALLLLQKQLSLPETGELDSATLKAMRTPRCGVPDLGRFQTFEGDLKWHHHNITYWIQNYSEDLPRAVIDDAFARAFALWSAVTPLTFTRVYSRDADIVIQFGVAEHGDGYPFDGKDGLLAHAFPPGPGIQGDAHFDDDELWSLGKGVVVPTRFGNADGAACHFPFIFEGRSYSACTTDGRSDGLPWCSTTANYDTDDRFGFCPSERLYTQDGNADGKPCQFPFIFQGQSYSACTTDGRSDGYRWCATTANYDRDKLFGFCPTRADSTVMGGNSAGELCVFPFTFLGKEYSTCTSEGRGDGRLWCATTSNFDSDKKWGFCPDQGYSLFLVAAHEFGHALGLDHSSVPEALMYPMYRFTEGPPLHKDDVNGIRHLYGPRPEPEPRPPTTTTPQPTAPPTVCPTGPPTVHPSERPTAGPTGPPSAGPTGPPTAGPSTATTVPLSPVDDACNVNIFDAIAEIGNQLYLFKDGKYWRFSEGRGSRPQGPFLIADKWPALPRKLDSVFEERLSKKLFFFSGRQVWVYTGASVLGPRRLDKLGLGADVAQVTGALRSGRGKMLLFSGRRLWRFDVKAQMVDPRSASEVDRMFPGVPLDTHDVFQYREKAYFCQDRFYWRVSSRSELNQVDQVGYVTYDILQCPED
Excerpt: as §1

Neutrophil collagenase = Neutrophil collagenase (Homo sapiens, UniProt P22894)
Sequence of Neutrophil collagenase (P22894 whole entry): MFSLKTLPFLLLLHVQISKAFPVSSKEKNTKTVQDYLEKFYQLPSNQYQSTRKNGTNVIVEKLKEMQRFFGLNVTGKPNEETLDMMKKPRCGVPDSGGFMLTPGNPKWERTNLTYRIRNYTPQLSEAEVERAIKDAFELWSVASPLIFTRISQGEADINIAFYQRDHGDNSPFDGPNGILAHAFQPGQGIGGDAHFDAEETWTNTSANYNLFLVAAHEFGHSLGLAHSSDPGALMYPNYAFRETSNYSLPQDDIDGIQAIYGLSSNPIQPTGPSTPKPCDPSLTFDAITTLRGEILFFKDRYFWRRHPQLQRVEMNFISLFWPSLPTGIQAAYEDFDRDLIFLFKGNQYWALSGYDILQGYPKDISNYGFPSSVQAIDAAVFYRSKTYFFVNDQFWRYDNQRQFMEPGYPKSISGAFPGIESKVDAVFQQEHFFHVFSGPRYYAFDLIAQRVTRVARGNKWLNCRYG
Excerpt: as §1

Stromelysin-1 = Stromelysin-1 (Homo sapiens, UniProt P08254)
Sequence of Stromelysin-1 (P08254 whole entry): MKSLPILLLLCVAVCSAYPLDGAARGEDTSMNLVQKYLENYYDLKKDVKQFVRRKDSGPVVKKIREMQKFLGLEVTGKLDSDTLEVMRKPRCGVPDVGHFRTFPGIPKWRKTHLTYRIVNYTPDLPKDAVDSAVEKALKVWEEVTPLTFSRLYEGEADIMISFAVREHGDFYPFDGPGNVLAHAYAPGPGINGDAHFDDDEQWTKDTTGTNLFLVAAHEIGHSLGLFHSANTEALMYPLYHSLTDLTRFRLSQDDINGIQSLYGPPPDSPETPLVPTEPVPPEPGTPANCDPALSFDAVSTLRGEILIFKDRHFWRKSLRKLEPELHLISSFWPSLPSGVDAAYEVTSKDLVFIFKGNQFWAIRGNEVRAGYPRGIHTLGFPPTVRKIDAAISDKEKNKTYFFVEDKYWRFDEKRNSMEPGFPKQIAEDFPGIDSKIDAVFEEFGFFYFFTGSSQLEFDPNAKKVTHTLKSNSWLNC
Excerpt: as §1

Stromelysin-2 = Stromelysin-2 (Homo sapiens, UniProt P09238)
Sequence of Stromelysin-2 (P09238 whole entry): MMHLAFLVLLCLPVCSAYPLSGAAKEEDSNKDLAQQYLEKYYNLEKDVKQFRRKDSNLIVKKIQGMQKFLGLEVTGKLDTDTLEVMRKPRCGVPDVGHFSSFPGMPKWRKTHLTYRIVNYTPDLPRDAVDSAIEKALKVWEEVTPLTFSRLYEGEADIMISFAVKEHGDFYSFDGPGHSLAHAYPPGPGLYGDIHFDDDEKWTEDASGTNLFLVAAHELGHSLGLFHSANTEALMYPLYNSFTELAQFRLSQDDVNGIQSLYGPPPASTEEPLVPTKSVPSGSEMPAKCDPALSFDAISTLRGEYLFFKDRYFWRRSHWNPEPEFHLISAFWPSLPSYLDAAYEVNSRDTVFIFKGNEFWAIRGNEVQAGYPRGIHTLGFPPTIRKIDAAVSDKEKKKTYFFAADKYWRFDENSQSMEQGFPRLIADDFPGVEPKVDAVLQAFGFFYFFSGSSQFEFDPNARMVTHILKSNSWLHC
Excerpt: as §1

Sequence of Angiotensin-converting enzyme (P12821 whole entry): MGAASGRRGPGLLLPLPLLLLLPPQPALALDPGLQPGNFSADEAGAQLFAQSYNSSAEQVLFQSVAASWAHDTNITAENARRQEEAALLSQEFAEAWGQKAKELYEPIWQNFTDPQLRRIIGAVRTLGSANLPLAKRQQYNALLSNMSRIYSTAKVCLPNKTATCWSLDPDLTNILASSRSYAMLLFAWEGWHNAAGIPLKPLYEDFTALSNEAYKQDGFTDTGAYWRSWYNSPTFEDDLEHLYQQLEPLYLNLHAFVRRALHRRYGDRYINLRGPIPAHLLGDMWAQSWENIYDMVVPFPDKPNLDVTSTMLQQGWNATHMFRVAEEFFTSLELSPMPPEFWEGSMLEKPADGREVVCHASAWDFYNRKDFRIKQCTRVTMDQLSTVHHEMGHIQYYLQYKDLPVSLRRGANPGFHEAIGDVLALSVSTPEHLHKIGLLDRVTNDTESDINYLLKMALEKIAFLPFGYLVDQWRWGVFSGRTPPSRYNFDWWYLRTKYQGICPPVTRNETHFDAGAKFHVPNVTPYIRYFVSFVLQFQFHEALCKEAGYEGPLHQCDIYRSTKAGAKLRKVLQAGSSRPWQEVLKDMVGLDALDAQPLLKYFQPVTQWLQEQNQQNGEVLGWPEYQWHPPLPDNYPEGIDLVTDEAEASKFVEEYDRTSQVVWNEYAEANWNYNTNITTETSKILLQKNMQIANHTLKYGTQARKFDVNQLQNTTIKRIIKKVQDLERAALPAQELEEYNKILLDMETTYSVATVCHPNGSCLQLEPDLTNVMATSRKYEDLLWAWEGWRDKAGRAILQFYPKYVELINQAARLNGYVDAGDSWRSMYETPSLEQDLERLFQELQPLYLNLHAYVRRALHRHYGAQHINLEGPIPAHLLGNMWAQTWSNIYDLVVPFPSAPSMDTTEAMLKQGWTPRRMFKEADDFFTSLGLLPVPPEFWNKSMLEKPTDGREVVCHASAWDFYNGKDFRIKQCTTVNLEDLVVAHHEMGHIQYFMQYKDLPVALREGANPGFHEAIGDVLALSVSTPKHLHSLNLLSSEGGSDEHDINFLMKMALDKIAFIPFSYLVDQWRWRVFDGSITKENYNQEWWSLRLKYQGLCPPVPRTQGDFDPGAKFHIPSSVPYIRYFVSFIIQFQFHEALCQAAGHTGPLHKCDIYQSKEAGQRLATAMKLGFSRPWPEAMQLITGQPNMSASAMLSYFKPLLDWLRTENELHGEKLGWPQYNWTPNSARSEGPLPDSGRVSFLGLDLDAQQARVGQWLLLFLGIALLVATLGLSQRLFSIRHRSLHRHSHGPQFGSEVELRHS
Sequence of 72 kDa type IV collagenase (P08253 whole entry): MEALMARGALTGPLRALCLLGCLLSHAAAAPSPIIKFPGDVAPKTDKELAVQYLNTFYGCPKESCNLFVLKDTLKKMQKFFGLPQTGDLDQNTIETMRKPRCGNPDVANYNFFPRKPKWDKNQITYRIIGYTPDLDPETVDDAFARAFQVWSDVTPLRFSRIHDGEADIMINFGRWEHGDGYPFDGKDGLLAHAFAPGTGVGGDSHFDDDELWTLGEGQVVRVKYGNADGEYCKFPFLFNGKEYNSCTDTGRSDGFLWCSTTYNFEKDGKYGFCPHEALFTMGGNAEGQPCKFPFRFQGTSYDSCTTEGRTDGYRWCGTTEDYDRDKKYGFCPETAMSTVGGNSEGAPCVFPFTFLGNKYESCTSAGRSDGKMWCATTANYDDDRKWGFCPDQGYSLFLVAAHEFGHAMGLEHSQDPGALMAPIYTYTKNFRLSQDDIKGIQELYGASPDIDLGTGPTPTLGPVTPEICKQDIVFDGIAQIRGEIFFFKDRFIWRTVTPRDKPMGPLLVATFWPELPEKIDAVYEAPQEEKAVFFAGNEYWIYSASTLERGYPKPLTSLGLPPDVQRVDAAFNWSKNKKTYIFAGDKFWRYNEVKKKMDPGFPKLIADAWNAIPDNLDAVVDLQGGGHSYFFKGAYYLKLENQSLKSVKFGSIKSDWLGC

What does the source list for `NC(=O)[C@@H](CCC(=O)O)NC(=O)[C@H](CCC(=O)O)NC(=O)C(Cc1cc(-c2ccc(-c3cccc(Cl)c3)cc2)no1)CP(=O)(O)c1ccc(Br)cc1` (some centres not stated) [RXP470, Compound 4]?
Ki [1]: 192 nM; Ki [2]: > 10000 nM; Ki (Collagenase 3): 49 nM; Ki [3]: > 10000 nM; Ki (Interstitial collagenase): > 10000 nM; Ki [4]: 0.19 nM; Ki (Matrilysin): 626 nM; Ki [5]: 140 nM; Ki [6]: 850 nM; Ki (Neutrophil collagenase): 271 nM; Ki (Stromelysin-1): 40 nM; Ki (Stromelysin-2): 8.3 nM
